Reference: US20230313199A1, “TARGET FOR MODULATING BODY MASS” (Massachusetts Institute of Technology, priority 2020, published 2023)

Test system: THP-1 cells
Assay: Inhibition of heme-stimulated thermogenesis (FPT) in THP-1 cells
Assay type: cell-based, human
Details: 4 μM thapsigargin 2 hours, then 40 μM heme one hour
Description: FIGS. 5A-5F show MFSD7C and heme regulate thermogenesis through SERCA2b in THP-1 cells. […] 30 hours later, MG132 was added into half of the cells and the other half was not treated. Another 35 hours later, some cells were treated with 40 μM heme for 1 hour before lysis. Cell lysates were immunoprecipitated with anti-FLAG antibody, and eluted, followed by anti-HA immunoprecipitation and elution. Total cell lysate and elute were subjected to Western blotting and probed with anti-SERCA2b or anti-MFSD7C antibodies. Shown are representative data from one of three experiments. […] 24 hrs later, cells were either not treated or treated with 10 μM MG132 for either 6 or 12 hours. The cells were lysed and subjected to FLAG pull-down and blotted with anti-MFSD7C, anti-SERCA2b and anti-ubiquitin antibodies. Shown are representative data from one of three experiments. […] Parental THP-1 cells were either not treated or treated with heme before lysis. Shown are representative data from one of four experiments. […]
FIGS. 16A-16F show Co-localization of MFSD7C and SERCA2b. […] Co-localization between MFSD7C and SERCA2b was quantified. […] P-values were calculated using unpaired t-test (***p<0.05). […]
In the second approach, we used fluorescent polymeric thermometer (FPT), which we synthesized in-house (see above). […] Then the fluorescence intensities were determined by a flow cytometer.

Question: How did the heme-stimulated thermogenesis turn out when `C/C=C(/C)C(=O)O[C@H]1C(C)=C2[C@H]([C@@H]1OC(=O)CCCCCCC)[C@@](C)(OC(C)=O)C[C@H](OC(=O)CCC)[C@@]1(O)[C@H]2OC(=O)[C@@]1(C)O` [thapsigargin] was run?
Answer: mostly inhibited
